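A five-concentration, 48-hour dose response in 96-well plates underlies each endpoint, interpolated linearly between surrounding concentrations. GI50 is the concentration that inhibits growth by half.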 Activity calls are given as the source filed them. Cut-off read from the data, not from the text of the source: active = GI50 up to about 1.1 µM and inactive = higher.
Experiments:
Test in all cases: NCI tumour cell line growth inhibition, 48 h
[1] = system: A549
[2] = system: UACC-257
[3] = system: PC-3
[4] = system: CAKI-1
[5] = system: MDA-MB-435
[6] = system: 786-0
[7] = system: OVCAR-3
[8] = system: HCT-116
[9] = system: RXF 393
[10] = system: SK-MEL-5
[11] = system: COLO 205
[12] = system: MDA-N
[13] = system: TK-10
[14] = system: SK-MEL-28
[15] = system: OVCAR-5
[16] = system: EKVX
[17] = system: BT-549
[18] = system: HCT-15
[19] = system: T47D

Row | SMILES | GI50 [1] | GI50 [2] | GI50 [3] | GI50 [4] | GI50 [5] | GI50 [6] | GI50 [7] | GI50 [8] | GI50 [9] | GI50 [10] | GI50 [11] | GI50 [12] | GI50 [13] | GI50 [14] | GI50 [15] | GI50 [16] | GI50 [17] | GI50 [18] | GI50 [19]
1 | Oc1nc2ccccc2c(O)c1Cc1ccccc1 | > 100 µM (inactive) | > 100 µM (inactive) | > 100 µM (inactive) | > 100 µM (inactive) | > 100 µM (inactive) | > 100 µM (inactive) | > 100 µM (inactive) | > 100 µM (inactive) | > 100 µM (inactive) | > 100 µM (inactive) | > 100 µM (inactive) | > 100 µM (inactive) | > 100 µM (inactive) | > 100 µM (inactive) | > 100 µM (inactive) | > 100 µM (inactive) | > 100 µM (inactive) | > 100 µM | –
2 | CC1(CCC(=O)OC2CCCCC2)OCCO1 | > 100 µM (inactive) | > 100 µM (inactive) | > 100 µM (inactive) | > 100 µM (inactive) | > 100 µM (inactive) | > 100 µM (inactive) | > 100 µM (inactive) | > 100 µM (inactive) | > 100 µM (inactive) | > 100 µM (inactive) | > 100 µM (inactive) | > 100 µM (inactive) | > 100 µM (inactive) | > 100 µM (inactive) | > 100 µM (inactive) | > 100 µM (inactive) | – | > 100 µM | > 100 µM (inactive)
3 | Oc1ccc(C[C@@H]2CN[C@H](Cc3ccc(O)c(Br)c3)CN2)cc1 | > 100 µM (inactive) | > 100 µM (inactive) | > 100 µM (inactive) | > 100 µM (inactive) | > 100 µM (inactive) | > 100 µM (inactive) | > 100 µM (inactive) | > 100 µM (inactive) | 84.3 µM (inactive) | – | > 100 µM (inactive) | – | > 100 µM (inactive) | > 100 µM (inactive) | > 100 µM (inactive) | > 100 µM (inactive) | > 100 µM (inactive) | > 100 µM | > 100 µM (inactive)
4 | C[C@H](CO)C1=CC(C#C[Si](C)(C)C)N(C(=O)Oc2ccccc2)c2ccccc21 (stereo partly specified) | 11.6 µM (inactive) | 13.6 µM (inactive) | 10.2 µM (inactive) | 14.1 µM (inactive) | 2.26 µM (inactive) | 14.2 µM (inactive) | 3.93 µM (inactive) | 10.8 µM (inactive) | 10.2 µM (inactive) | 12.7 µM (inactive) | 5.6 µM (inactive) | 3.58 µM (inactive) | 17 µM (inactive) | 16.6 µM (inactive) | 15 µM (inactive) | 13.3 µM (inactive) | – | 3.06 µM | 15.9 µM (inactive)
5 | COC(=O)C1CC(C=O)=C(SC)N1 (stereo unspecified) | > 50 µM (inactive) | > 50 µM (inactive) | > 50 µM (inactive) | > 50 µM (inactive) | > 50 µM (inactive) | > 50 µM (inactive) | > 50 µM (inactive) | > 50 µM (inactive) | > 50 µM (inactive) | > 50 µM (inactive) | > 50 µM (inactive) | > 50 µM (inactive) | > 50 µM (inactive) | > 50 µM (inactive) | > 50 µM (inactive) | > 50 µM (inactive) | > 50 µM (inactive) | > 50 µM | –
6 | CN1C(=O)C(C(N)=O)C2CC1(C)Oc1ccccc12 (stereo unspecified) | > 100 µM (inactive) | > 100 µM (inactive) | > 100 µM (inactive) | > 100 µM (inactive) | > 100 µM (inactive) | > 100 µM (inactive) | > 100 µM (inactive) | > 100 µM (inactive) | > 100 µM (inactive) | > 100 µM (inactive) | > 100 µM (inactive) | – | – | > 100 µM (inactive) | > 100 µM (inactive) | > 100 µM (inactive) | > 100 µM (inactive) | > 100 µM | > 100 µM (inactive)
7 | Nc1nc2c(ncn2CC2CCC(CO)C2)c(=O)[nH]1 (stereo unspecified) | > 100 µM (inactive) | > 100 µM (inactive) | > 100 µM (inactive) | > 100 µM (inactive) | > 100 µM (inactive) | > 100 µM (inactive) | > 100 µM (inactive) | > 100 µM (inactive) | > 100 µM (inactive) | > 100 µM (inactive) | > 100 µM (inactive) | > 100 µM (inactive) | > 100 µM (inactive) | > 100 µM (inactive) | > 100 µM (inactive) | > 100 µM (inactive) | – | > 100 µM | > 100 µM (inactive)
8 | C[C@]12CCC3[C@@H](CC[C@@H]4c5nonc5CC[C@]34C)C1C/C(=N/O)C2=O (stereo partly specified) | > 100 µM (inactive) | > 100 µM (inactive) | – | 4.34 µM (inactive) | – | > 100 µM (inactive) | 39.7 µM (inactive) | > 100 µM (inactive) | 14.1 µM (inactive) | > 100 µM (inactive) | > 100 µM (inactive) | – | 51.1 µM (inactive) | 27.1 µM (inactive) | > 100 µM (inactive) | 52.5 µM (inactive) | – | > 100 µM | –
9 | CSc1nc(NC(C)C)c2c(n1)Sc1nc3ccccc3n1N=C2 | 5.33 µM (inactive) | 29.1 µM (inactive) | 19.5 µM (inactive) | 28.7 µM (inactive) | 17.4 µM (inactive) | 4.23 µM (inactive) | 10.4 µM (inactive) | 7.01 µM (inactive) | – | 0.69 µM (active) | 7.69 µM (inactive) | 27 µM (inactive) | 13.8 µM (inactive) | > 100 µM (inactive) | 31.3 µM (inactive) | 21.1 µM (inactive) | 18.7 µM (inactive) | 36.8 µM | –
10 | Cc1nc2c(sc3nc4c(cc32)CCC4)c(=O)o1 | > 50.5 µM (inactive) | 89.1 µM (inactive) | > 100 µM (inactive) | > 100 µM (inactive) | 36.6 µM (inactive) | > 72.4 µM (inactive) | 37.8 µM (inactive) | 32.8 µM (inactive) | > 100 µM (inactive) | 37.5 µM (inactive) | 54.6 µM (inactive) | 38.7 µM (inactive) | > 64.6 µM (inactive) | 46.7 µM (inactive) | > 95.1 µM (inactive) | > 100 µM (inactive) | – | 34.4 µM | > 78 µM (inactive)
11 | CC(C)Oc1ccc(CNC2=NCCO2)c2ccccc12 | 15.4 µM (inactive) | 5.25 µM (inactive) | – | – | 10.9 µM (inactive) | 13.6 µM (inactive) | – | 12.6 µM (inactive) | 13.8 µM (inactive) | 12.9 µM (inactive) | 16.4 µM (inactive) | – | 16.3 µM (inactive) | 14.5 µM (inactive) | 11.6 µM (inactive) | 15.1 µM (inactive) | – | 15.6 µM | 11.9 µM (inactive)
12 | COc1ccc2c(CCNC(=O)/C=C/c3ccccc3)c(C(C)=O)[nH]c2c1[N+](=O)[O-] | 8.05 µM (inactive) | 8.95 µM (inactive) | – | 5.28 µM (inactive) | – | 20.3 µM (inactive) | 10.1 µM (inactive) | 13.7 µM (inactive) | – | – | 8.85 µM (inactive) | – | – | 14.5 µM (inactive) | > 10 µM (inactive) | – | – | 6.89 µM | –
13 | CC1=C(Cl)C[C@@H](/C(C)=C\Cl)O[C@@]1(O)C(Br)Br | 22 µM (inactive) | 35.3 µM (inactive) | 60.5 µM (inactive) | 18.5 µM (inactive) | 31.6 µM (inactive) | 33.7 µM (inactive) | 17.5 µM (inactive) | 30.4 µM (inactive) | 19.2 µM (inactive) | 24.9 µM (inactive) | 29.5 µM (inactive) | 19.2 µM (inactive) | 29 µM (inactive) | 59.8 µM (inactive) | 19.2 µM (inactive) | 26.5 µM (inactive) | 28.4 µM (inactive) | 16.8 µM | –
14 | COc1ccc(C(O)CC(O)(C(F)(F)F)C(F)(F)F)cc1 (stereo unspecified) | 21.5 µM (inactive) | 19.1 µM (inactive) | 11 µM (inactive) | 15 µM (inactive) | 31.9 µM (inactive) | 32.4 µM (inactive) | 22.2 µM (inactive) | 16.6 µM (inactive) | 20.1 µM (inactive) | 21.2 µM (inactive) | 19.1 µM (inactive) | 46.2 µM (inactive) | 44.7 µM (inactive) | 62.7 µM (inactive) | 27.5 µM (inactive) | 31.3 µM (inactive) | – | 34.8 µM | 41.8 µM (inactive)
15 | C[C@]12CCC3[C@@H](CC[C@@H]4c5nonc5CC[C@]34C)C1CCC2=O (stereo partly specified) | 27.8 µM (inactive) | 18 µM (inactive) | – | 22.9 µM (inactive) | – | 23.8 µM (inactive) | 17.1 µM (inactive) | 17 µM (inactive) | 26.2 µM (inactive) | 16.9 µM (inactive) | 16.9 µM (inactive) | – | 29 µM (inactive) | 24.7 µM (inactive) | 29.3 µM (inactive) | 19.9 µM (inactive) | – | 29.8 µM | –
16 | COC(=O)c1cc2c(cc1O)[C@@H](NC(C)=O)CCc1cc(OC)c(OC)c(OC)c1-2 | 0.0605 µM (active) | 0.0715 µM (active) | 0.0509 µM (active) | 0.0993 µM (active) | 0.0262 µM (active) | 0.0328 µM (active) | 0.0518 µM (active) | 0.0274 µM (active) | – | 0.0235 µM (active) | 0.029 µM (active) | 0.0277 µM (active) | > 10 µM (inactive) | 0.0731 µM (active) | > 10 µM (inactive) | 0.0415 µM (active) | – | 0.0461 µM | > 10 µM (inactive)
17 | O=C(NCCCCNCCCNC(=O)OCc1ccccc1)OCc1ccccc1 | 64.4 µM (inactive) | 19.2 µM (inactive) | 27.2 µM (inactive) | – | 33.4 µM (inactive) | 21.9 µM (inactive) | > 100 µM (inactive) | 24.5 µM (inactive) | 16.5 µM (inactive) | 16.9 µM (inactive) | 16.9 µM (inactive) | – | 43.7 µM (inactive) | 18.4 µM (inactive) | 85.1 µM (inactive) | 51.6 µM (inactive) | 55 µM (inactive) | 61.5 µM | 18.9 µM (inactive)

Reference: ChEMBL document CHEMBL1201862, “PubChem BioAssay data set” (2004)
